# From article PMC10376691, “Inhibition of Acetylcholinesterase and Amyloid-β Aggregation by Piceatannol and Analogs: Assessing In Vitro and In Vivo Impact on a Murine Model of Scopolamine-Induced Memory Impairment” (Antioxidants, 2023)
# “Also recorded” adds a separate entry of the source.
# Columns and labels:
# [1] = Neurite outgrowth and cell viability, two-color fluorescence assay kit; type: cell-based; conditions: human, 3-day or 6-day treatment, green fluorescence, read-out: cell viability relative to the control
# Method: (§1) The SH-SY5Y cells were grown in DMEM/F-12 medium supplemented with 10% FBS at 37 °C under a humidified atmosphere and 5% CO2 [41]. […] The MTT was used to evaluate cell viability, and the absorbance at 570 nm was determined. The DMSO used instead of the sample solution was blank (recognized as 100%), and each treatment was expressed as relative cell viability (%). To study the stimulation of neurite outgrowth, the SH-SY5Y cells (5000 cells/well) were seeded on a 96-well plate pre-coated with poly-L-lysine and then cultured in the DMEM/F-12 medium containing 10% FBS overnight at 37 °C under a humidified atmosphere and 5% CO2. After being removed from the culture medium, each PIC, GNT, RHA, and isoRHA (at a final concentration of 10 μM in the 0.1%DMSO) or 0.1% DMSO (the control) was added to the DMEM/F-12 medium containing 10% FBS and refreshed every three days. On day 3 and day 6, each of the culture plates was photographed using an inverted microscope (ECLIPSE TS100, Nikon Instruments Inc., Tokyo, Japan). The culture medium was removed and washed with PBS, and the cultured cells in each well were fixed with 4% paraformaldehyde. To measure cell viability and quantify the neurite outgrowths of the treated SH-SY5Y in a 96-well plate, the neurite outgrowth staining kit (a two-color fluorescence assay kit) was used, following a previous report or the protocol in the manufacturer’s manual (publication number: MAN0007224), which included a cell membrane-stained fluorescent dye (orange-red fluorescence), a cell viability indicator (green fluorescence), and a reagent for background masking. […] The value for the control was recognized as 100%, and each treatment was expressed relative to the control.
# SH-SY5Y cells [2] = assay: as above; type: cell-based; conditions: 10 μM, 3-day or 6-day treatment, orange-red fluorescence; vs control
# Method: as §1
# [3] = tested on: mouse brain microvascular endothelial cell models; conditions: lipopolysaccharide-induced inflammation and oxidative stress; cited from earlier work
# [4] = tested on: LPS-treated Swiss albino mice; conditions: 6-day treatment 2.5 mg/kg/day, LPS 0.8 mg/kg i.p.; cited from earlier work
# SH-SY5Y cells [5] = assay: Cytotoxicity on SH-SY5Y cells (MTT); type: cell-based; conditions: 1, 2, 5 and 10 μM, MTT (Figure S1)
# Method: The human SH-SY5Y neuroblastoma cell lines (CRL-2266, Lot No. 58979771) were purchased from American Type Culture Collection (Manassas, VA, USA) and used as models to investigate PIC and its analogs for neuroprotective activities against Aβ-induced cell deaths and the stimulation of neurite outgrowths. The SH-SY5Y cells were grown in DMEM/F-12 medium supplemented with 10% FBS at 37 °C under a humidified atmosphere and 5% CO2 [41]. […]. The SH-SY5Y cells (10,000 cells/well) were seeded and cultured in a DMEM/F-12 medium containing 10% FBS for 24 h at 37 °C under a humidified atmosphere and 5% CO2. […] The medium was then removed, and 40 μg/mL Aβ peptide (25–35) (dissolved in PBS) or an equal aliquot of PBS was added to the medium for another 24 h culture. The MTT was used to evaluate cell viability, and the absorbance at 570 nm was determined. The DMSO used instead of the sample solution was blank (recognized as 100%), and each treatment was expressed as relative cell viability (%). […] To measure cell viability and quantify the neurite outgrowths of the treated SH-SY5Y in a 96-well plate, the neurite outgrowth staining kit (a two-color fluorescence assay kit) was used, following a previous report or the protocol in the manufacturer’s manual (publication number: MAN0007224), which included a cell membrane-stained fluorescent dye (orange-red fluorescence), a cell viability indicator (green fluorescence), and a reagent for background masking. The fluorescence ratios of Ex555nm/Em565nm and Ex495nm/Em515nm were determined for the neurite outgrowths and the cell viabilities, respectively. […]
# The following supporting information can be downloaded at: https://www.mdpi.com/article/10.3390/antiox12071362/s1. […] The MTT was used to evaluate cell viability, and the absorbance at 570 nm was determined. The DMSO used instead of the sample solution was blank (recognized as 100%), and each treatment was expressed as relative cell viability (%). […]
# [6] = DPPH radical scavenging activity
# Method: DPPH radical scavenging activity was assayed following a previous report, with some modifications. […] DMSO was used instead of a sample solution in the blank group. […] The scavenging activity of the DPPH radical (%) was calculated with the following equation: (△A515blank − △A515sample) ÷ △A515blank × 100%. The IC50 of the DPPH radical scavenging activity of PIC and its analogs or that of Trolox was calculated from each linear equation by three test concentrations and their radical scavenging activities.
# [7] = after oral RSV 75 mg/kg, athymic nude mice; cited from earlier work
compound,measurement,setting,value
"Oc1cc(O)cc(C=Cc2ccc(O)c(O)c2)c1 [PIC, 3,5,3′,4′-tetrahydroxystilbene]",viability at 10 µM,[1],80%
same,stimulation of neurite outgrowths,SH-SY5Y cells [2],not PIC nor GNT; also recorded: not PIC and GNT
same,BBB integrity,[3],protect BBB integrity
same,Aβ levels in brain extracts,[4],reduce Aβ levels in brain extracts
same,learning and memory functions,[4],ameliorate
same,cytotoxicity on SH-SY5Y cells,SH-SY5Y cells [5],insignificant cytotoxicity
same,IC50,"[6]; 120 μM DPPH in methanol, 37 °C, 20 min",40.2 µM
same,"DPPH scavenging capacity, fold higher than that of RSV","[6]; ratio of IC50, vs RSV",2.5 fold
same,"DPPH scavenging capacity, fold higher than that of Trolox","[6]; ratio of IC50, vs Trolox",2.07 fold
same,PIC detected in the liver,[7],11.50 nmol/g
same,PIC detected in the plasma,[7],5.25 µmol/L
same,PIC detected in the skin,[7],2.4 nmol/g
